This is an account of results in ChEMBL document CHEMBL3774350, “The discovery of 2-substituted phenol quinazolines as potent RET kinase inhibitors with improved KDR selectivity” (Eur J Med Chem, 2016).

Molecules are shown by their SMILES. pIC50: −log10 of the molar value.

The pIC50 is −log10 of the IC50, conventionally taken in molar units. A higher pIC50 goes with a small IC50. One may read the solubility as the dissolved amount per volume that the medium holds.

The nature of the first data set: Cytotoxicity in mouse BA/F3 cells after 48 hrs by Cell titre glo-based luminescence assay. The following applies: BaF3, 48 h.
As for `COc1cc2ncnc(Nc3cccc(O)c3C)c2cc1OC`, the pIC50 is below 5.00.

`COc1cc2ncnc(Nc3c(F)ccc(O)c3F)c2cc1OC` showed a negative-log IC50 (pIC50) below 5.00.

Regarding `COc1cc2ncnc(Nc3cc(O)c(C)cc3F)c2cc1OC`, the pIC50 is below 6.00.

For `COc1cc2ncnc(Nc3cccc(O)c3)c2cc1OC`, the negative-log IC50 (pIC50) is below 5.00.

`COc1cc2ncnc(Nc3c(F)ccc(O)c3C)c2cc1OC` showed a negative-log IC50 (pIC50) below 5.00.

The molecule `COc1cc2ncnc(Nc3c(F)ccc(O)c3Cl)c2cc1OC` had a pIC50 below 5.00.

On to `COc1cc2ncnc(Nc3cccc(O)c3Br)c2cc1OC`, for which the pIC50 was below 5.00.

Molecule `COc1cc2ncnc(Nc3cccc(O)c3Cl)c2cc1OC` had a negative-log IC50 (pIC50) below 5.00.

Take `COc1cc2ncnc(Nc3cc(F)cc(O)c3C)c2cc1OC`: the pIC50 is below 5.00.

With `COc1cc2ncnc(Nc3c(Cl)ccc(O)c3F)c2cc1OC`, the pIC50 was below 5.00.

`COc1cc2ncnc(Nc3cccc(O)c3O)c2cc1OC` gave a pIC50 below 5.00.

Another data set in a line: Aqueous solubility of compound by LC-MS/MS analysis. Type of data set: physicochemical.
Conditions: not given
The molecule `COc1cc2ncnc(Nc3c(F)ccc(O)c3C)c2cc1OC` returned a solubility above 100 µM.
